Data set [1] relates to C57BL/6JRj mice injured by intra-nigral injections of alpha-synuclein and CBE. Put plainly: Mouse model of Parkinson's disease (intra-nigral alpha-synuclein protofibrils plus CBE). The data set is classed as in vivo. As to conditions: 30 mg/kg per os once a day. From the text: This model (run by Neuro-Sys SAS, France) uses C57BL/6JRj mice injured by intra-nigral injections of a solution containing protofibrils of alpha-synuclein (α-syn, precisely quantified by automatic Western Blot) and combined with pharmacological inhibition of GBA by conduritol B epoxide (CBE), in aged mice. The model mimics the main pathologies of PD: loss of dopaminergic neurons in the substantia nigra, neuroinflammation, deficits in motor coordination and synucleinopathy (α-syn aggregation). Any substance with positive effects in this model may be useful as a new therapeutic agent for the treatment or prevention of PD.
• Type of animal: C57BL/6JRj (Male) • Age: 18 months old • Supplier: Janvier Labs • Animal number: 10 mice per group • Acclimation and clinical signs: Animals arrived on site 7 days (one week) before the experiment to allow optimal acclimation.
Overview: CBE was administered along with the test compounds, starting on the day of the stereotaxic injections of the α-syn oligomer preparation.
Test compounds at specific concentrations (see below) were administered per os (gavage or drinking water). • Test compound treatment: The test compounds were solubilized (vehicle=water), aliquoted and stored at −20° C. Aliquots were thawed overnight at 4° C. and given once a day. Treatment started on the day of the stereotaxic injections of α-syn preparation (Day 0). Treatment was administrated until the last day of the experiment (Day 28; =day of dissection). • CBE dose and administration: 50 mg/kg, Intraperitoneal (i.p.), twice a day. • CBE treatment: Administration of CBE (vehicle=saline [NaCl 0.9%] started on the day of the stereotaxic injections of α-syn preparation (Day 0). Treatment was administrated until the last day of the experiment (Day 28; =day of dissection), • Untreated control: vehicle (saline; i.p.) administered twice a day, • Stereotaxic injections of α-syn oligomers: Human α-syn peptide (stock at 69 μM in water at −20° C.) was reconstituted at 50 μM in NaCl, 0.9% (final concentration). All mice in compound treated groups were subjected to surgery and received 2.5 μL of α-syn solution. Mice were anesthetized by isoflurane (4%, for induction), in an induction chamber coupled with a vaporizer and to an oxygen concentrator. Mice were placed on the stereotaxic frame. Anesthesia was maintained by isoflurane (2%) with a face mask coupled to the isoflurane vaporizer and oxygen concentrator machine. The skull was exposed and holes were drilled. The α-syn preparation was bilaterally injected into the SNpc, at the following coordinates: A-P, −0.3 mm; M-L, +0.12 mm; D-V, −0.45 mm. Depth of anesthesia and rectal temperature were verified every 5 minutes. After surgery, mice were allowed to recover before being placed back in the cage.
• i) Body mass • ii) Assessment of motor coordination: bar test and grid walking test • iii) Dopaminergic Tyrosine hydroxylase (TH)-positive neuron survival in the substantia nigra pars compacta (SNpc), i.e. a measure of the number of TH neurons in the SNpc • iv) α-syn area in TH positive neurons (a measure of the degree of aggregation of α-syn in TH positive neurons, in the SNpc)
• Overall: For overall evaluation and body mass, mice were observed daily, and body mass was monitored prior to drug administration. • Assessment of motor coordination: bar test.
In the third week (Week 3) post-surgery, motor coordination of the mice was assessed with the bar test. The principle of the test is based on the capacity of the mice to cross a horizontal bar connected to a platform (18 mm of diameter, 60 cm long). The test requires good coordination between front and hindlimbs, and good balance. Mice are placed at one extremity of the bar and need to reach a platform located at the other side of the bar. Motor coordination was studied after two training sessions, one and two days before the test. Three sessions were recorded by a video camera system. […]

The test system of data set [2] is Human osteosarcoma U2OS cells. Briefly: Acidic vesicle formation (lysosome/autolysosome staining, LysoView 633 / LysoTracker Deep Red), stimulation of autophagy. It is filed as cell-based. The following applies: 24 hours. In outline:
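U2OS cells treated with compound for 24 h, then stained 45 min at 37° C with 1× LysoView 633 or 50 nM LysoTracker Deep Red plus Hoechst nuclei. Live-cell fluorescence images (Cy5/DAPI) scored for acidic vesicle formation relative to DMSO control.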

Data set [3] concerns Prp-TDP43 mice. Briefly: Mouse model of Amyotrophic Lateral Sclerosis (ALS). As to conditions: 30 mg/kg once per day, oral gavage; for increase in mean CAMP amplitude compared to the vehicle controlled group: sciatic nerve.

Turning to `CCOc1ccc(Cl)cc1CN1CC[C@@H](CN)C1.Cl` [Compound 12, (S)-(1-(5-chloro-2-ethoxybenzyl)pyrrolidin-3-yl)methanamine hydrochloride], in data set [1] (week 3), the “bar test: decrease in the mean time required to cross the bar compared to the α-syn/CBE injured group” value turned out to be 21%, the “bar test: reduction in the mean number of steps required to cross the bar compared to the α-syn/CBE injured group” value was determined as 2% and the “bar test: reduction in the number of misplaced steps (failed strides) compared to the α-syn/CBE injured group” value is reported as 33%. In data set [1] (week 4), the “decrease in the aggregation of α-syn in TH neurons (α-syn area) compared to the α-syn/CBE injured group” value is 10%, the “grid walking test: increase in the total distance travelled during the test” value was determined as 12%, the “grid walking test: reduction in the mean number of failures per meter (number of missed steps)” value amounted to 21% and the “increase in the number of dopaminergic TH positive neurons in the SNpc compared to the α-syn/CBE injured group” value turned out to be 36%. Further, the activation at 0.8 µM in data set [2] (0.8 μM, read-out: Activity (percentage increase in acidic vesicle formation over the DMSO-treated control)) is 30 to 50%. The activation at 10 µM in data set [2] (10 μM, read-out: increase in acidic vesicle formation over the DMSO-treated control) is at least 25%. Also, in data set [3], the “body weight compared to the vehicle group” value is on record as “increase”. In data set [3] (60 days), the mortality result is given as “No mortality was observed” and the pathological clinical signs entry is given as “No pathological clinical sign was observed”. In data set [3] (at three months of age), the “decrease in mean NfL concentration (plasma) compared to the vehicle controlled group” value was determined as 54%, the “increase in mean NCV (nerve conduction velocity) compared to the vehicle controlled group” value is 139%, the “increase in mean rotarod latency compared to the vehicle controlled group” value is reported as 99% and the “increase in mean CAMP amplitude compared to the vehicle controlled group” value is reported as 73%. Moreover, in data set [3] (at two months of age), the “decrease in mean NfL concentration (plasma) compared to the vehicle controlled group” value is 48%, the “increase in mean rotarod latency compared to the vehicle controlled group” value was determined as 76% and the “increase in mean CAMP amplitude compared to the vehicle controlled group” value is 39%.

The values are drawn from patent US20260193180A1, “AUTOPHAGY INDUCING COMPOUNDS AND USES THEREOF” (SAMSARA THERAPEUTICS INC., priority 2022, published 2026).
